Laboratory results published in PubChem BioAssay AID1259407 (Chemical Carcinogenesis Research Information System (CCRIS), 2018).
The source made the active and inactive calls. No rule for the calls is given here.

Test system: CCRIS mutagenicity, Ames/micronucleus/aberration tests
Assay: CCRIS mutagenicity studies
[1] = Test System: AMES SALMONELLA TYPHIMURIUM, Strain/Indicator: TA100, Metabolic Activation: NONE, Method: STANDARD PLATE
[2] = Test System: AMES SALMONELLA TYPHIMURIUM, Strain/Indicator: TA100, Metabolic Activation: RAT, LIVER, S-9, AROCLOR 1254, Method: STANDARD PLATE

For `O=[N+]([O-])c1ccc2c(c1)Cc1cc([N+](=O)[O-])ccc1-2`, the mutagenic call (Test System: AMES SALMONELLA TYPHIMURIUM, Strain/Indicator: TA98(1,8-DNP6), Metabolic Activation: NONE, Method: STANDARD PLATE) was “active; positive”, the mutagenic call (Test System: AMES SALMONELLA TYPHIMURIUM, Strain/Indicator: TA98(NR), Metabolic Activation: NONE, Method: STANDARD PLATE) was “active; positive” and the mutagenic call (Test System: AMES SALMONELLA TYPHIMURIUM, Strain/Indicator: TA98, Metabolic Activation: NONE, Method: PREINCUBATION) was “active; positive”. The mutagenic call (Test System: AMES SALMONELLA TYPHIMURIUM, Strain/Indicator: TA98, Metabolic Activation: NONE, Method: STANDARD PLATE) was “active; positive”, the mutagenic call (Test System: AMES SALMONELLA TYPHIMURIUM, Strain/Indicator: TA98, Metabolic Activation: RAT, LIVER, S-9, AROCLOR 1254, Method: STANDARD PLATE) was “active; positive” and the mutagenic call (Test System: AMES SALMONELLA TYPHIMURIUM, Strain/Indicator: TA98, Metabolic Activation: RAT, LIVER, S-9, PCB (10%), Method: PREINCUBATION) was “active; positive”. For the same compound, the mutagenic call [1] was “active; positive” and the mutagenic call [2] was “active; positive”.

For `CBr`, the mutagenic call (Test System: AMES SALMONELLA TYPHIMURIUM, Strain/Indicator: TA98, Metabolic Activation: HAMSTER, LIVER, S-9, AROCLOR 1254 (30%), Method: DESICCATOR) was “inactive; negative”, the mutagenic call (Test System: AMES SALMONELLA TYPHIMURIUM, Strain/Indicator: TA98, Metabolic Activation: NONE, Method: DESICCATOR) was “inactive; negative” and the mutagenic call (Test System: AMES SALMONELLA TYPHIMURIUM, Strain/Indicator: TA98, Metabolic Activation: NONE, Method: GAS EXPOSURE) was “inactive; negative”. The mutagenic call (Test System: AMES SALMONELLA TYPHIMURIUM, Strain/Indicator: TA98, Metabolic Activation: RAT, LIVER, S-9, AROCLOR 1254 (30%), Method: DESICCATOR) was “inactive; negative”, the mutagenic call (Test System: AMES SALMONELLA TYPHIMURIUM, Strain/Indicator: TA98, Metabolic Activation: RAT, LIVER, S-9, SODIUM PHENOBARBITAL AND 5,6-BENZOFLAVONE, Method: GAS EXPOSURE) was “inactive; negative” and the mutagenic call (Test System: AMES SALMONELLA TYPHIMURIUM, Strain/Indicator: TA100, Metabolic Activation: HAMSTER, LIVER, S-9, AROCLOR 1254 (30%), Method: DESICCATOR) was “active; positive”. The mutagenic call (Test System: AMES SALMONELLA TYPHIMURIUM, Strain/Indicator: TA100, Metabolic Activation: NONE, Method: DESICCATOR) was “active; positive”, the mutagenic call (Test System: AMES SALMONELLA TYPHIMURIUM, Strain/Indicator: TA100, Metabolic Activation: NONE, Method: GAS EXPOSURE) was “active; positive” and the mutagenic call (Test System: AMES SALMONELLA TYPHIMURIUM, Strain/Indicator: TA100, Metabolic Activation: NONE, Method: PREINCUBATION) was “active; positive”. The mutagenic call [1] was “active; positive”, the mutagenic call (Test System: AMES SALMONELLA TYPHIMURIUM, Strain/Indicator: TA100, Metabolic Activation: RAT, LIVER, S-9, AROCLOR 1254 (30%), Method: DESICCATOR) was “active; positive” and the mutagenic call (Test System: AMES SALMONELLA TYPHIMURIUM, Strain/Indicator: TA100, Metabolic Activation: RAT, LIVER, S-9, AROCLOR 1254, Method: PREINCUBATION) was “active; positive”. For the same compound, the mutagenic call [2] was “active; positive”, the mutagenic call (Test System: AMES SALMONELLA TYPHIMURIUM, Strain/Indicator: TA100, Metabolic Activation: RAT, LIVER, S-9, SODIUM PHENOBARBITAL AND 5,6-BENZOFLAVONE, Method: GAS EXPOSURE) was “active; positive” and the mutagenic call (Test System: AMES SALMONELLA TYPHIMURIUM, Strain/Indicator: TA1535, Metabolic Activation: NONE, Method: GAS EXPOSURE) was “active; positive”. For the same compound, the mutagenic call (Test System: AMES SALMONELLA TYPHIMURIUM, Strain/Indicator: TA1535, Metabolic Activation: RAT, LIVER, S-9, SODIUM PHENOBARBITAL AND 5,6-BENZOFLAVONE, Method: GAS EXPOSURE) was “active; positive”, the mutagenic call (Test System: AMES SALMONELLA TYPHIMURIUM, Strain/Indicator: TA1537, Metabolic Activation: NONE, Method: GAS EXPOSURE) was “inactive; negative” and the mutagenic call (Test System: AMES SALMONELLA TYPHIMURIUM, Strain/Indicator: TA1537, Metabolic Activation: RAT, LIVER, S-9, SODIUM PHENOBARBITAL AND 5,6-BENZOFLAVONE, Method: GAS EXPOSURE) was “inactive; negative”. For the same compound, the mutagenic call (Test System: E. COLI, Strain/Indicator: WP2UVRA, Metabolic Activation: NONE, Method: GAS EXPOSURE) was “active; positive” and the mutagenic call (Test System: E. COLI, Strain/Indicator: WP2UVRA, Metabolic Activation: RAT, LIVER, S-9, SODIUM PHENOBARBITAL AND 5,6-BENZOFLAVONE, Method: GAS EXPOSURE) was “active; positive”.
